Measured values taken from ChEMBL document CHEMBL1124303, “Conformational requirements of substrates for activity with phenylethanolamine N-methyltransferase” (J Med Chem, 1988).

Assays:
[1] = target: T1, Phenylethanolamine N-methyltransferase (Bos taurus, UniProt P10938); experiment: Binding affinity to phenylethanolamine N-methyltransferase(PNMT) in bovine
T1 sequence (P10938 whole entry): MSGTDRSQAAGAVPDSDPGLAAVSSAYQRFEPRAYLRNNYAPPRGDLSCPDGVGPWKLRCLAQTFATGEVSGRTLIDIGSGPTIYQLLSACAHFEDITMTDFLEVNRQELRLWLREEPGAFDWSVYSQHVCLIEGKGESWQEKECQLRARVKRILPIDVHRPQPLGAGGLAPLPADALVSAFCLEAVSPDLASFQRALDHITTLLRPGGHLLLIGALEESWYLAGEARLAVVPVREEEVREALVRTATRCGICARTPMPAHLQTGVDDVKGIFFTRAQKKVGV

[2] = Km value was measured; type: ADME
[3] = Vmax value was measured; type: ADME
[4] = Ratio of Vmax to Km of compound was determined; type: ADME

SMILES | Ki [1] | Km [2] | Vmax [3] | Ratio [4]
N[C@H]1CCc2ccccc2[C@@H]1O | 9.4 µM | – | – | –
NC[C@@H](O)c1ccccc1 | – | 70 µM | 2.2 nmol/min/mg | –
OC1CNCc2ccccc21 (stereo not drawn) | 176 µM | – | – | –
c1ccc2c(c1)CCNC2 [1,2,3,4-TETRAHYDROISOQUINOLINE] | 10 µM | – | – | –
N[C@H]1CCc2ccccc2[C@H]1O | – | 22 µM | 0.15 nmol/min/mg | 68
